For 30 compounds, activity coefficient results are on record in the NIST ThermoML archive (doi:10.1016/j.jct.2012.03.005).

Numbers after ± are expanded uncertainties.

A short description of the data set: activity coefficient (dimensionless); of the first substance listed, at infinite dilution; xn = mol fraction of the nth substance listed. Conditions: 101 kPa, Liquid, Chromatography, x1 = 0.

With `COC(C)(C)C` [2-methoxy-2-methylpropane] + CCn1cc[n+](C)c1.CS(=O)(=O)[O-], the activity coefficient is, setting by setting: (308.15 K) 23.6 ± 1.6; (318.15 K) 22.5 ± 1.5; (328.15 K) 21.7 ± 1.5; (338.15 K) 20.7 ± 1.4; (348.15 K) 20 ± 1.4.

Take `C=C(C)c1ccccc1` [(1-methylethenyl)benzene] + CCn1cc[n+](C)c1.CS(=O)(=O)[O-]: the activity coefficient was 10.7 ± 0.7 (308.15 K); 10.9 ± 0.7 (318.15 K); 11.1 ± 0.8 (328.15 K); 11.2 ± 0.8 (338.15 K); 11.3 ± 0.8 (348.15 K); 11.5 ± 0.8 (358.15 K).

As to `CC(C)=O` [acetone] + CCn1cc[n+](C)c1.CS(=O)(=O)[O-], the activity coefficient runs as follows: (308.15 K) 308 ± 21; (318.15 K) 318 ± 22; (328.15 K) 328 ± 23; (338.15 K) 338 ± 23; (348.15 K) 348 ± 24; (358.15 K) 358 ± 25.

With `CC#N` [acetonitrile] + CCn1cc[n+](C)c1.CS(=O)(=O)[O-], the activity coefficient reads like this: (308.15 K) 0.799 ± 0.052; (318.15 K) 0.818 ± 0.053; (328.15 K) 0.841 ± 0.054; (338.15 K) 0.86 ± 0.06; (348.15 K) 0.877 ± 0.056; (358.15 K) 0.892 ± 0.057.

With `c1ccccc1` [benzene] + CCn1cc[n+](C)c1.CS(=O)(=O)[O-], the activity coefficient is, setting by setting: (308.15 K) 308 ± 21; (318.15 K) 318 ± 22; (328.15 K) 328 ± 23; (338.15 K) 338 ± 23; (348.15 K) 348 ± 24; (358.15 K) 358 ± 25.

Regarding `C1CCCCCC1` [cycloheptane] + CCn1cc[n+](C)c1.CS(=O)(=O)[O-], the activity coefficient is 113 ± 8 (308.15 K); 99.8 ± 6.9 (318.15 K); 90.7 ± 6.2 (328.15 K); 79.9 ± 5.5 (338.15 K); 72.6 ± 5 (348.15 K).

With `C1CCCCC1` [cyclohexane] + CCn1cc[n+](C)c1.CS(=O)(=O)[O-], the activity coefficient turned out to be 83.6 ± 5.7 (308.15 K); 73.9 ± 5.1 (318.15 K); 67.6 ± 4.6 (328.15 K); 59.6 ± 4.1 (338.15 K); 53.7 ± 3.7 (348.15 K).

With `C1CCCCCCC1` [cyclooctane] + CCn1cc[n+](C)c1.CS(=O)(=O)[O-], the activity coefficient reads like this: (308.15 K) 163 ± 11; (318.15 K) 143 ± 10; (328.15 K) 128 ± 9; (338.15 K) 114 ± 8; (348.15 K) 101 ± 7.

Regarding `C1CCCC1` [cyclopentane] + CCn1cc[n+](C)c1.CS(=O)(=O)[O-], the activity coefficient reads like this: (308.15 K) 46.2 ± 3.2; (318.15 K) 42.2 ± 2.9; (328.15 K) 39.5 ± 2.7; (338.15 K) 36.1 ± 2.5; (348.15 K) 33 ± 2.3.

Turning to `CCCCCCCCCC` [decane] + CCn1cc[n+](C)c1.CS(=O)(=O)[O-], the activity coefficient came to 1320 ± 91 (308.15 K); 1180 ± 82 (318.15 K); 1040 ± 72 (328.15 K); 925 ± 64 (338.15 K); 835 ± 58 (348.15 K); 762 ± 53 (358.15 K).

Turning to `CCOCC` [diethyl ether] + CCn1cc[n+](C)c1.CS(=O)(=O)[O-], the activity coefficient reads like this: (308.15 K) 19.2 ± 1.3; (318.15 K) 18.2 ± 1.2; (328.15 K) 17.5 ± 1.2; (338.15 K) 16.8 ± 1.1; (348.15 K) 16.1 ± 1.1.

With `CC(C)OC(C)C` [diisopropyl ether] + CCn1cc[n+](C)c1.CS(=O)(=O)[O-], the activity coefficient by setting is: (308.15 K) 79.6 ± 5.5; (318.15 K) 74.3 ± 5.1; (328.15 K) 68.7 ± 4.7; (338.15 K) 64.8 ± 4.4; (348.15 K) 60.6 ± 4.2.

Regarding `CCCOCCC` [dipropyl ether] + CCn1cc[n+](C)c1.CS(=O)(=O)[O-], the activity coefficient is, setting by setting: (308.15 K) 80.3 ± 5.5; (318.15 K) 72.7 ± 5; (328.15 K) 67.5 ± 4.6; (338.15 K) 62.8 ± 4.3; (348.15 K) 58.1 ± 4.

Regarding `CCO` [ethanol] + CCn1cc[n+](C)c1.CS(=O)(=O)[O-], the activity coefficient runs as follows: (308.15 K) 0.489 ± 0.037; (318.15 K) 0.483 ± 0.037; (328.15 K) 0.479 ± 0.037; (338.15 K) 0.474 ± 0.037; (348.15 K) 0.47 ± 0.04; (358.15 K) 0.467 ± 0.036.

For the compound `CCc1ccccc1` [ethylbenzene] + CCn1cc[n+](C)c1.CS(=O)(=O)[O-], the activity coefficient runs as follows: (308.15 K) 18.1 ± 1.2; (318.15 K) 17.5 ± 1.2; (328.15 K) 17.1 ± 1.2; (338.15 K) 16.5 ± 1.1; (348.15 K) 16.1 ± 1.1; (358.15 K) 15.6 ± 1.1.

As for `CCCCCCC` [heptane] + CCn1cc[n+](C)c1.CS(=O)(=O)[O-], the activity coefficient is, setting by setting: (308.15 K) 378 ± 26; (318.15 K) 328 ± 23; (328.15 K) 273 ± 19; (338.15 K) 244 ± 17.

On to `C=CCCCC` [hex-1-ene] + CCn1cc[n+](C)c1.CS(=O)(=O)[O-], for which the activity coefficient reads like this: (308.15 K) 85.1 ± 5.8; (318.15 K) 77.1 ± 5.3; (328.15 K) 70.4 ± 4.8; (338.15 K) 63.9 ± 4.4.

As to `CO` [methanol] + CCn1cc[n+](C)c1.CS(=O)(=O)[O-], the activity coefficient (308.15 K) turned out to be 0.223 ± 0.029; the activity coefficient (318.15 K) worked out at 0.225 ± 0.029; the activity coefficient (328.15 K) turned out to be 0.228 ± 0.029; the activity coefficient (338.15 K) was determined as 0.229 ± 0.029; the activity coefficient (348.15 K) came out at 0.232 ± 0.029; the activity coefficient (358.15 K) was determined as 0.234 ± 0.029.

Take `CCCCCCCCC` [nonane] + CCn1cc[n+](C)c1.CS(=O)(=O)[O-]: the activity coefficient reads like this: (308.15 K) 911 ± 63; (318.15 K) 779 ± 54; (328.15 K) 690 ± 48; (338.15 K) 607 ± 42; (348.15 K) 547 ± 38; (358.15 K) 507 ± 35.

Regarding `C=CCCCCCC` [oct-1-ene] + CCn1cc[n+](C)c1.CS(=O)(=O)[O-], the activity coefficient turned out to be 258 ± 18 (308.15 K); 228 ± 16 (318.15 K); 206 ± 14 (328.15 K); 187 ± 13 (338.15 K); 170 ± 12 (348.15 K).

Regarding `CCCCCCCC` [octane] + CCn1cc[n+](C)c1.CS(=O)(=O)[O-], the activity coefficient is 597 ± 41 (308.15 K); 505 ± 35 (318.15 K); 453 ± 31 (328.15 K); 388 ± 27 (338.15 K); 350 ± 24 (348.15 K).

On to `CCCC(C)=O` [pentan-2-one] + CCn1cc[n+](C)c1.CS(=O)(=O)[O-], for which the activity coefficient is, setting by setting: (308.15 K) 7.83 ± 0.53; (318.15 K) 7.66 ± 0.52; (328.15 K) 7.52 ± 0.51; (338.15 K) 7.39 ± 0.5; (348.15 K) 7.26 ± 0.5; (358.15 K) 7.14 ± 0.49.

With `CCC(=O)CC` [pentan-3-one] + CCn1cc[n+](C)c1.CS(=O)(=O)[O-], the activity coefficient worked out at 8.08 ± 0.55 (308.15 K); 7.96 ± 0.54 (318.15 K); 7.86 ± 0.54 (328.15 K); 7.75 ± 0.53 (338.15 K); 7.63 ± 0.52 (348.15 K); 7.53 ± 0.51 (358.15 K).

`CCCO` [propan-1-ol] + CCn1cc[n+](C)c1.CS(=O)(=O)[O-]: the activity coefficient (308.15 K) came out at 0.761 ± 0.05; the activity coefficient (318.15 K) was 0.75 ± 0.05; the activity coefficient (328.15 K) turned out to be 0.736 ± 0.049; the activity coefficient (338.15 K) was found to be 0.724 ± 0.048; the activity coefficient (348.15 K) was 0.716 ± 0.048; the activity coefficient (358.15 K) was 0.708 ± 0.047.

In the case of `c1ccncc1` [pyridine] + CCn1cc[n+](C)c1.CS(=O)(=O)[O-], the activity coefficient is 1.56 ± 0.1 (308.15 K); 1.57 ± 0.1 (318.15 K); 1.59 ± 0.11 (328.15 K); 1.6 ± 0.1 (338.15 K); 1.62 ± 0.11 (348.15 K); 1.64 ± 0.11 (358.15 K).

In the case of `C=Cc1ccccc1` [styrene] + CCn1cc[n+](C)c1.CS(=O)(=O)[O-], the activity coefficient came to 5.68 ± 0.39 (308.15 K); 5.71 ± 0.39 (318.15 K); 5.75 ± 0.39 (328.15 K); 5.79 ± 0.39 (338.15 K); 5.82 ± 0.4 (348.15 K); 5.85 ± 0.4 (358.15 K).

As to `C1CCOC1` [tetrahydrofuran] + CCn1cc[n+](C)c1.CS(=O)(=O)[O-], the activity coefficient (308.15 K) came out at 5.42 ± 0.37; the activity coefficient (318.15 K) turned out to be 5.3 ± 0.36; the activity coefficient (328.15 K) was 5.2 ± 0.4; the activity coefficient (338.15 K) was 5.1 ± 0.35; the activity coefficient (348.15 K) was 5 ± 0.34; the activity coefficient (358.15 K) is 4.91 ± 0.33.

For the compound `c1ccsc1` [thiophene] + CCn1cc[n+](C)c1.CS(=O)(=O)[O-], the activity coefficient is, setting by setting: (308.15 K) 1.87 ± 0.13; (318.15 K) 1.92 ± 0.13; (328.15 K) 1.96 ± 0.13; (338.15 K) 2 ± 0.14; (348.15 K) 2.05 ± 0.14; (358.15 K) 2.09 ± 0.14.

For `Cc1ccccc1` [toluene] + CCn1cc[n+](C)c1.CS(=O)(=O)[O-], the activity coefficient came out at 9.13 ± 0.62 (308.15 K); 9.03 ± 0.62 (318.15 K); 8.88 ± 0.61 (328.15 K); 8.77 ± 0.6 (338.15 K); 8.65 ± 0.59 (348.15 K); 8.53 ± 0.58 (358.15 K).

For `O` [water] + CCn1cc[n+](C)c1.CS(=O)(=O)[O-], the activity coefficient by setting is: (318.15 K) 0.071 ± 0.03; (328.15 K) 0.075 ± 0.03; (338.15 K) 0.079 ± 0.03; (348.15 K) 0.083 ± 0.03; (358.15 K) 0.088 ± 0.03.
